Measurements taken from patent US20140213641A1, “POLYMERIC NANOPARTICLES FOR DRUG DELIVERY” (INSTITUT QUIMIC DE SARRIA, priority 2011, published 2014).
Like-named read-outs stand apart in the source and are kept apart here.

Experiments:
[1] = in vitro; details: human
Method: (§1) An ATP-lite assay was carried out over 48 to 72 hours in order to determine cytotoxicity of paclitaxel-loaded nanoparticles comprising a surface-modifying agent compared with that of paclitaxel and empty nanoparticles on healthy brain cell lines and determine IC50 values.
(§2) The formulations tested were as follows: vehicle, empty nanoparticles, decorated paclitaxel-loaded nanoparticles (3.33% paclitaxel by weight; decoration: SEQ ID #5) paclitaxel and etoposide (etoposide is described as having mild toxicity in treatment of brain cancer).
(§3) Three cell lines were tested. Normal human astrocytes (NHA; Lonza) are primary-derived cultures of adherent cells with limited number of divisions. Normal human […] (NHNP; primary cell line; Lonza) are neurosphere growing cells with high number of division that differentiate in adherent […] cells and neurons under specific conditions (laminin coated plates, induction with differentiation factors). Finally, immortalized human neural progenitors (RenCells; Millipore) are fetal brain cells transformed with c-myc oncogene.
(§4) Cells were incubated with treatment for 24 hours (astrocytes) and 72 hours (progenitor cell lines)

[2] = tested on: Immortalized human neural progenitors (ReNcells); details: 72 h, 50 μM
Method: as §1, §2, §3, §4

[3] = tested on: Normal human neural progenitors (NHNP); details: 72 h, 50 μM
Method: as §1, §2, §3, §4

[4] = tested on: CGL-1 cell line; assay: Clonogenic assay (soft agar colony formation); type: cell-based; details: 336 h, read-out: IC50 (concentration that inhibits 50% of clones); CGL1, experiment 3, serial dilutions 1:5, highest concentration 1000 nM, 14 days colony formation
Method: (§5) A clonogenic assay was carried out to observe the toxicity of decorated paclitaxel-loaded nanoparticles compared with that of paclitaxel and empty nanoparticles on glioma cell lines and determine IC50 values in a long term effect (2 to 3 weeks growth). Nanoparticles with or without a surface-modifying agent (SEQ ID#5) were formed according to the method of example 2, with or without inclusion of paclitaxel.
(§6) Three cells lines were used. The CGL-1 cell line (Oncodesign, Dijon, France) was isolated from the TG-1 tumour subcutaneously (SC) implanted in Nude rat. 14 days were allowed for colony formation. The human U-87 MG cell line (American Type Culture Collection) was initiated from a […] glioblastoma from a person. 21 days were allowed for colony formation. Finally, the LN-229 cell line (American Type Culture Collection) was established in 1979 from cells taken from a patient with right frontal parieto-occipital glioblastoma. 14-21 days were allowed for colony formation.
(§7) The formulations tested were as follows: nanoparticles (stock solution NaCl 0.9%); paclitaxel-loaded nanoparticles (3.33% paclitaxel by weight; stock solution NaCl 0.9%); and paclitaxel (stock solution DMSO 100%). All test substances diluted at 100 μM in their respective vehicle to obtain stock solutions. Five concentrations (1:5 or 1:3 dilution steps) were used in triplicate. Formulations were obtained by diluting stock solutions at 100 μM in their respective vehicle to obtain a series of five concentrations in 1:5 or 1:3 dilution steps. Each solution was then further diluted at 1:20 with RPMI 1640 before final dilution at 1:10 into soft agar.
(§8) Repetitions were carried out for GCL-1 at 2 nM, 8 nM, 40 nM, 200 nM and 1000 nM and for LN-229 at 1.2 nM, 3.7 nM, 11 nM, and 33 nM. At least 2 independent experiments were carried out with top concentrations and dilution steps changed when needed. Cells were incubated for 14 to 21 days with the different treatments.
(§9) Results are given in Table 4 and indicate the % survival from the initial 300 clones. Vehicle results not included (100% survival in all cases). The results are shown graphically in FIGS. 4, 5 and 6. Clonogenic tests are based on clones of cells and not cells alone.

[5] = tested on: LN-229 cell line; assay: Clonogenic assay (soft agar colony formation); type: cell-based; details: Homo sapiens
Method: as §5, §6, §7, §8, §9

[6] = tested on: U-87 MG cell line; assay: Clonogenic assay (soft agar colony formation); type: cell-based; details: Homo sapiens
Method: as §5, §6, §7, §8, §9

[7] = tested on: CGL1; details: cells treated for few days, read-out: Paclitaxel metabolic assay (historical data) IC50; cited from earlier work
[8] = tested on: U87-MG; details: cells treated for few days, read-out: Paclitaxel metabolic assay (historical data) IC50; cited from earlier work
[9] = tested on: U87-MG; details: read-out: literature IC50 values for paclitaxel alone; cited from earlier work

| IC50 at 24 h [1] [nM] | IC50 [4] [nM] | IC50 ([5]; LN-229, read-out: IC50 (concentration that inhibits 50% of clones), LN229, experiment 4, serial dilutions 1:3, highest concentration 100 nM, 14-21 days colony formation) [nM] | IC50 ([5]; LN-229, read-out: IC50 (concentration that inhibits 50% of clones), LN229, experiment 5, serial dilutions 1:3, highest concentration 100 nM, 14-21 days colony formation) [nM] | IC50 ([6]; 504 h, read-out: IC50 (concentration that inhibits 50% of clones), U87-MG, experiment 2, serial dilutions 1:5, highest concentration 500 nM, 21 days colony formation) [nM] | IC50 ([6]; 504 h, read-out: IC50 (concentration that inhibits 50% of clones), U87-MG, experiment 3, serial dilutions 1:5, highest concentration 500 nM, 21 days colony formation) [nM] | IC50 ([6]; U87-MG cells, test repeated, read-out: IC50, repeated test) [nM] | SMILES | % survival [2] [%] | % survival [3] [%] | IC50 [7] [nM] | IC50 [8] [nM] | IC50 [9] [nM] |
| --- | --- | --- | --- | --- | --- | --- | --- | --- | --- | --- | --- | --- |
| ~50000 |  |  |  |  |  |  | COc1cc([C@@H]2c3cc4c(cc3[C@@H](O[C@@H]3O[C@@H]5CO[C@@H](C)O[C@H]5[C@H](O)[C@H]3O)[C@H]3COC(=O)[C@H]23)OCO4)cc(OC)c1O [Etoposide, etoposide] | 3 | 21 |  |  |  |
|  | 792 | 7.3 | 21 | 2.6 | 7.5 | 4 to 20 | CC(=O)O[C@H]1C(=O)[C@@]2(C)[C@H]([C@H](OC(=O)c3ccccc3)[C@]3(O)C[C@H](OC(=O)[C@H](O)[C@@H](NC(=O)c4ccccc4)c4ccccc4)C(C)=C1C3(C)C)[C@]1(OC(C)=O)CO[C@@H]1C[C@@H]2O [Paclitaxel, paclitaxel] |  |  | > 100 | ~10 | 10 to 20 |
